Assay results: patent US8753857B2, “Crystal structure of the pro form of a matrix metalloproteinase and an allosteric processing inhibitor” (Janssen Pharmaceutica N.V., priority 2011, dated 2014)

What was measured:
[1] = test system: rats with SCW-induced arthritis; experiment: Efficacy in rats with SCW-induced arthritis (ankle thickness, clinical scores); format: in vivo, rat; details: 5, 20, 50 mg/kg BID oral, Day 18-26
Description: SCW PG-PS 10S (Beckton Dickinson Cat#210866) suspended in saline was vortexed for 30 seconds and sonicated for 3 min with a probe type sonicator prior to injection. Female Lewis (LEW/N) rats, 5-6 weeks of age (80-100 g) were injected (i.p.) with SCW PG-PS (15 μg of rhamnose/gram BW) in the lower left quadrant of the abdomen using a 1 mL syringe fitted with a 23-gauge needle. Control (disease-free) rats were treated in a similar manner with sterile saline. Control rats were sacrificed on day 5 and groups of SCW-injected rats were sacrificed on day 5 when acute inflammation was maximal or on day 18 when chronic inflammation was established.
To induce arthritis, Female Lewis (LEW/N) rats, 5-6 weeks of age (80-100 g) were injected (i.p.) with SCW PG-PS as described above. Eighteen days later, arthritis was well established. Calipers were used to measure the width (anterior to posterior surface) of the left and right hind ankles of each rat. Each ankle was measured 3 times and averaged, and treatment groups were randomized based on ankle thickness (Table 6). Commencing on day 18, randomized groups of arthritic rats (n=5 rats/group) received vehicle or 5, 20, or 50 mg/kg Example 2 BID by oral gavage. Vehicle consisted of an aqueous mixture containing 2% (v:v) N-methylpyrrolidone, 5% (v:v) glycerine, and 20% (w:v) captisol. Treatment continued daily through the morning of day 26. […]

proMMP9 = target: T1, proMMP9 (Homo sapiens, UniProt P14780); experiment: Activation of proMMP9 by human fetal lung fibroblast (HFL-1) cultures (Western blot); format: cell-based; details: 3.3 μM, 30 nM elastase, 72 hrs, mAb-L51/82
T1 construct: endogenous in cells; host or cells: HFL-1 (ATCC CCL-153), TNFα-stimulated, with 30 nM human neutrophil elastase added
Description: Example 2 was assessed additionally for ability to block the maturation of proMMP9 to active MMP9 in cultures of human fetal lung fibroblasts (HFL-1, American Type Culture Collection #CCL-153). Unlike rat synoviocytes, HFL-1 cells were unable to process proMMP9 to the active form without addition of neutrophil elastase. […] Rather, the function of elastase in this assay may be to inactivate tissue inhibitors of matrix metalloproteinases (TIMPs) that repress endogenous pathways of MMP9 activation (Skold, Liu et al. 1999).
HLF-1 were maintained in monolayer culture in DMEM with 10% FCS and were used between passage numbers 5-15. HLF-1 were embedded in collagen gels as described for rat SCW synoviocytes (vida supra). Half mL gels containing 0.4 million cells were dislodged into wells of 12 well Costar plates containing 1 mL/well of DMEM adjusted to contain 0.05% BSA and 100 ng/mL human TNFα (R&D Systems Cat #210-TA/CF). After overnight culture (37° C. and 5% CO2) wells were adjusted to contain an additional 0.5 mL of DMEM containing 0.05% BSA and with or without 13.2 μM Example 2 (final concentration was 3.3 μM Example 2). Next, cultures were adjusted to contain 30 nM human elastase (Innovative Research). The plates were cultured an additional 72 hrs, at which time MMP9 secreted into the conditioned media was bound to gelatin-sepharose and evaluated by Western blot analysis as described for the rat synoviocyte cultures (vida supra). mAb-51/82 detected three forms of MMP9 in HFL-1 cultures.
A second experiment was performed to determine if the 80 kD form was mature active MMP9 and to determine the potency of Example 2 as an inhibitor of MMP9 maturation in this assay. HFL-1 cells embedded in collagen gels were cultured as described above in the presence of TNFα overnight and the cultures were then adjusted to contain 30 nM elastase and graded concentrations of Example 2 for an additional 72 hrs at which time MMP9 secreted into the conditioned media was bound to gelatin-sepharose and evaluated by Western blot analysis for active MMP9 using pAb-1246 raised against the N-terminal neoepitope of active MMP9 (Table 5). In the absence of Example 2, pAb-1246 readily detected MMP9 with an electrophoretic mobility of approximately 80 kD. […] Inhibition occurred over a dose range with an IC50 of approximately 0.3 μM Example 2.

T1 sequence (P14780 20-707 limits assumed): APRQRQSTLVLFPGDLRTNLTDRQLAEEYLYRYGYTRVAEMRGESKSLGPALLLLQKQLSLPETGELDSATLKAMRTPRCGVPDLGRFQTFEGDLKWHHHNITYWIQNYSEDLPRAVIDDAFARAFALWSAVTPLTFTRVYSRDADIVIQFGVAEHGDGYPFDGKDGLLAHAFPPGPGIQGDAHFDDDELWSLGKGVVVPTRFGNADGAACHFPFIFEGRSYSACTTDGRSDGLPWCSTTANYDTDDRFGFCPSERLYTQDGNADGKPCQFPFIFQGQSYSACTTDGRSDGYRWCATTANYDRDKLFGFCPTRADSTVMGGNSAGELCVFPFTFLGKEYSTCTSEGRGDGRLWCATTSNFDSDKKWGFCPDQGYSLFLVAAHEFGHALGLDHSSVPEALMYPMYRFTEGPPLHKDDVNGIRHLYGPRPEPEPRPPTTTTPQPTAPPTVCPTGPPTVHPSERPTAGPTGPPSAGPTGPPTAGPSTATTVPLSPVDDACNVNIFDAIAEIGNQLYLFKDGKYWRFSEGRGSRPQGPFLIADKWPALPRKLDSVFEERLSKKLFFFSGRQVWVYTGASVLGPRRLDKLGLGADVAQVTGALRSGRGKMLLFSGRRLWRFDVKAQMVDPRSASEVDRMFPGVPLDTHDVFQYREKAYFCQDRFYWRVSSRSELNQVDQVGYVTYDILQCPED

SMILES: Cc1nc(C)c(-c2csc(Nc3cc(S(N)(=O)=O)ccc3OC(C)C)n2)s1 [Example 2, 3-(2′,4′-Dimethyl-[4,5′]bithiazolyl-2-ylamino)-4-isopropoxy-benzenesulfonamide.HBr]
- Effect on ankle thickness measurements [1]: dose-dependent decrease
- Effect on clinical score measurements [1]: dose dependent decrease
- Percent of total signal 80 kD (proMMP9): 7%
- Percent of total signal 86 kD (proMMP9): 47%
- Percent of total signal 100 kD (proMMP9): 46%
- Signal Total (proMMP9): 91346 INT * mm^2
